Among the data in patent publication US20170137410A1, “FUSED CYCLOALKYL-PYRIMIDINE COMPOUNDS AND USES THEREOF” (Medivation Technologies, Inc., priority 2014, published 2017) are IC50 values, retold here.

Some results are limits rather than exact numbers.

As usually defined, the IC50 is the concentration that gives 50% inhibition. A higher IC50 goes with a need for much substance.

The target of this test is T1, FLT3 (D835Y) (Homo sapiens, UniProt P36888, D835Y).
T1 sequence (P36888 27-993 D835Y): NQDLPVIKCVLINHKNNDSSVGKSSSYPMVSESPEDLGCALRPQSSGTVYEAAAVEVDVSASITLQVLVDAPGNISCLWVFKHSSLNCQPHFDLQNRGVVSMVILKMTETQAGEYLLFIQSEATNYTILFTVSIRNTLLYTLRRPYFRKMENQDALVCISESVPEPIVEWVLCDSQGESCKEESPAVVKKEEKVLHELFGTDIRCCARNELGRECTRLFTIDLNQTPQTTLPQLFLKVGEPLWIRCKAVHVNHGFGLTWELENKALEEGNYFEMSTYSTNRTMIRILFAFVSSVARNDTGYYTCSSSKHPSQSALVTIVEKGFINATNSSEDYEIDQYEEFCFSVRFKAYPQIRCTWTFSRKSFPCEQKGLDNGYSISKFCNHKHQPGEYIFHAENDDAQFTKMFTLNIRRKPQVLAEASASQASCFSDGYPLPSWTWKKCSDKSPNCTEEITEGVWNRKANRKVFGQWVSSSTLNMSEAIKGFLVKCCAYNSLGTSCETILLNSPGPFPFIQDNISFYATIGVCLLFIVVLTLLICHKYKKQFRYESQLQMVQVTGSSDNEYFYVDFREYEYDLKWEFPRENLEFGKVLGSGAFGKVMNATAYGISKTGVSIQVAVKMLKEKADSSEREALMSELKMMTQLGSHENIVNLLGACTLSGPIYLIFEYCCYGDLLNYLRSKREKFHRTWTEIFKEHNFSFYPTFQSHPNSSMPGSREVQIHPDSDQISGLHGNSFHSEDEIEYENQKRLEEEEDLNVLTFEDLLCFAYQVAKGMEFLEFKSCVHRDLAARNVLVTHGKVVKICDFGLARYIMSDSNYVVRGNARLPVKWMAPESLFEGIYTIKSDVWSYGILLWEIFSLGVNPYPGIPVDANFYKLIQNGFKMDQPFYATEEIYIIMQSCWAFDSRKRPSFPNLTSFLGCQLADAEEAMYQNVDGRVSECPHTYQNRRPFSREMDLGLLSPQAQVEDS
The test is described as follows: HotSpot kinase assay against FLT3 (D835Y). Particulars: HotSpot 33P assay, ATP 10 μM. It counts as biochemical. The method, then: Kinase assays were performed using test compounds against a panel of FLT3 kinases: FLT3; FLT3 (D835Y); and FLT3 (ITD). Compounds were prepared as 10 mM stock solutions in DMSO prior to use in the assay. Each compound was tested at 10 concentrations with three-fold serial dilution starting at 1 μM against the three kinases. The control compound, staurosporine, was tested at 10 concentrations with four-fold serial dilution starting at 20 μM. IC50 values and curve fits were obtained using Prism (GraphPad Software). The screening was performed using the “HotSpot” assay platform. The assay measures the conversion of a peptide substrate to ^33P-labelled phosphorylated product. Briefly, specific kinase/substrate pairs along with required cofactors were prepared in reaction buffer. Specifically, the substrate was prepared in reaction buffer (20 mM Hepes, pH 7.5; 10 mM MgCl2; 1 mM EGTA; 0.02% Brij35; 0.02 mg/mL BSA; 0.1 mM Na3VO4; 2 mM DTT; 1% DMSO), followed by delivery of any required cofactor to the resulting substrate solution. The corresponding kinase was delivered into the substrate solution and the reaction mixture was mixed gently. Compound was delivered into the reaction mixture, followed 15-20 min later by addition of a mixture of ATP (Sigma, St. Louis Mo.) and ^33P ATP (specific activity 0.01 μCi/μL final; Perkin Elmer, Waltham, Mass.) to a final concentration of 10 μM to initiate the reaction. Reactions were carried out at RT for 120 min, followed by spotting of the reactions onto P81 ion exchange filter paper (Whatman #3698-915; Whatman Inc., Piscataway, N.J.). Unbound phosphate was removed by extensive washing of filters in 0.75% phosphoric acid. […] The percent of enzyme inhibition was calculated based on the percent of remaining kinase activity. IC50 values were determined.

Take `CCN(C(=O)[C@@H]1CCCN1c1nc2c(c(Nc3cc(C(C)C)[nH]n3)n1)CCC2)c1nccs1` [145b, (S)—N-ethyl-1-(4-((5-isopropyl-1H-pyrazol-3-yl)amino)-6,7-dihydro-5H-cyclopenta[d]pyrimidin-2-yl)-N-(thiazol-2-yl)pyrrolidine-2-carboxamide]: the IC50 is 262 nM. For `CC(C)(C)c1cc(Nc2nc(N3CCC[C@H]3C(=O)N3CCC(F)(F)CC3)nc3c2CCC3)n[nH]1` [142b, (S)-(1-(4-((5-(tert-butyl)-1H-pyrazol-3-yl)amino)-6,7-dihydro-5H-cyclopenta[d]pyrimidin-2-yl)pyrrolidin-2-yl)(4,4-difluoropiperidin-1-yl)methanone] the value was more than 1000 nM; for `CCN(C(=O)[C@@H]1CCCN1c1nc2c(c(Nc3cc(C(C)(C)C)[nH]n3)n1)CCC2)c1nccs1` [144b, (S)-1-(4-((5-(tert-butyl)-1 H-pyrazol-3-yl)amino)-6,7-dihydro-5H-cyclopenta[d]pyrimidin-2-yl)-N-ethyl-N-(thiazol-2-yl)pyrrolidine-2-carboxamide], more than 1000 nM; for `CCC(=O)N1CCN(C(=O)[C@@H]2CCCN2c2nc3c(c(Nc4cc(C5CCCC5)[nH]n4)n2)CCC3)CC1` [143b, (S)-1-(4-((4-((5-cyclopentyl-1H-pyrazol-3-yl)amino)-6,7-dihydro-5H-cyclopenta[d]pyrimidin-2-yl)prolyl)piperazin-1-yl)propan-1-one], 187 nM.

The compound `CC(C)c1cc(Nc2nc(N3CCC[C@H]3C(=O)N(C)c3nccs3)nc3c2CCC3)n[nH]1` [68b, (S)-1-(4-((5-isopropyl-1H-pyrazol-3-yl)amino)-6,7-dihydro-5H-cyclopenta[d]pyrimidin-2-yl)-N-methyl-N-(thiazol-2-yl)pyrrolidine-2-carboxamide] displayed an IC50 of 83.8 nM. With `CC(C)(C)c1cc(Nc2nc(N3CCC[C@@H]3C(=O)N3CCC(F)(F)CC3)nc3c2CCC3)n[nH]1` [142a, (R)-(1-(4-((5-(tert-butyl)-1H-pyrazol-3-yl)amino)-6,7-dihydro-5H-cyclopenta[d]pyrimidin-2-yl)pyrrolidin-2-yl)(4,4-difluoropiperidin-1-yl)methanone] the figure was more than 1000 nM; with `CC1(C(=O)N2CCC(F)(F)CC2)CCCN1c1nc2c(c(Nc3cc(C4CCCC4)[nH]n3)n1)CCC2` (racemic) [compound 146, (1-(4-((5-cyclopentyl-1H-pyrazol-3-yl)amino)-6,7-dihydro-5H-cyclopenta[d]pyrimidin-2-yl)-2-methylpyrrolidin-2-yl)(4,4-difluoropiperidin-1-yl)methanone], 1570 nM; with `CCC(=O)N1CCN(C(=O)[C@H]2CCCN2c2nc3c(c(Nc4cc(C5CCCC5)[nH]n4)n2)CCC3)CC1` [143a, 1-(4-((4-((5-cyclopentyl-1H-pyrazol-3-yl)amino)-6,7-dihydro-5H-cyclopenta[d]pyrimidin-2-yl)-D-prolyl)piperazin-1-yl)propan-1-one], 14 nM.
